Experimental data taken from patent publication US20230357320A1, “HELICAL STAPLED PEPTIDES AND USES THEREOF” (FOG PHARMACEUTICALS, INC., priority 2020, published 2023).
Starred links: 1 amine or outer side, 2 acyl side, 3 side chain; linkers in the order of their positions; H or OH if unused. Positions of bridges follow the written chain, without caps; N, C: chain ends. Non-standard residues stand in square brackets, D forms with d. Residues, ends and D or L forms follow the SMILES beside them. X1 = O=C([C@]1(CC=[*:3])CCCN1[*:1])[*:2]; αAllylPro = C=CC[C@@]1(C(=O)O)CCCN1; S5 = C=CCCC[C@](C)(N)C(=O)O

What was measured:
[1] = parameters: PAMPA Pe: dose or concentration left out as unconfirmed; conditions: for % Retention: PAMPA; for PAMPA Pe: 5 h, pH 7.4
Method: (§1) The synthesized peptides were first analyzed with a PAMPA assay. […] The PAMPA plate system is composed of two compartments, donor and acceptor, which are separated by a phospholipid-infused membrane. The amount of compound transferred from the acceptor well into the donor well over a period of incubation time is used to determine the passive permeability of a compound.
(§2) The two plates are separated by a membrane infused with phospholipids. […] The amount of compound transferred from one well to the other is usually quantified by reverse-phase HPLC-mass spectrometry.
(§3) Briefly, all PAMPA assays were performed using the commercially available PAMPA plate system from Corning, which uses a proprietary membrane composed of structured phospholipids. […] To prevent nonspecific peptide loss to the plates, the acceptor wells of the Corning PAMPA plates were blocked overnight with 5% nonfat milk with 0.1% Triton X-100 in Dulbecco's phosphate buffer saline (DPBS) at pH=7.4, followed by extensive washing prior to assays. The donor wells and membrane itself were not exposed to the milk/Triton solution. […] The PAMPA experiments described herein were performed using plates from Corning Lot #9112010, Lot #9112011 and Lot #7317005 (Corning Inc., Corning, New York, USA).
(§4) To set up PAMPA assays, the PAMPA plate system was equilibrated at room temperature for at least an hour before setting up the assay. The acceptor plate preincubated with milk blocking solution was washed with water, followed by DPBS buffer. 300 μL of 5% DMSO in DPBS at pH=7.4 was added to the pre-blocked acceptor plate, and 200 μL of 10M compounds made with 5% DMSO in DPBS at pH=7.4 was added to the donor plate. The donor plate with a lid was then carefully inserted into the acceptor plate with no bubbles formed at the interface of donor and acceptor plates. The PAMPA assay plate was covered with aluminum foil and placed in a 37° C. incubator for 5 hours. 10 M input solution of all compounds was diluted 20-fold to a final acetonitrile concentration of 50% before analyzing by reverse-phase HPLC and Q-Exactive plus mass spectrometer. At the end of 5 hours, PAMPA donor and acceptor plates were separated and diluted 20-fold and 2-fold respectively to a final acetonitrile concentration of 50%. The diluted solutions of PAMPA donor and acceptor plates were analyzed by reverse-phase HPLC and Q-Exactive plus mass spectrometer.
(§5) Pe measures the passive permeability of each compound tested in the PAMPA assay, whereas % retention measures the amount of compound retained in solution at the end of the assay compared to the input sample.

[2] = in vitro; parameters: dose or concentration left out as unconfirmed; conditions: PAMPA
Method: as §1, §2, §3, §4, §5

[3] = CHI Log D measurement (chromatographic hydrophobicity index); conditions: pH 7.4
Method: Finally, to measure hydrophobicity, a CHI Log D measurement assay was employed. […] The retention time measurements were performed using reverse-phase HPLC and Q-Exactive mass spectrometer with Phenomenex Gemini C-18 column (3 uM, 50×3 mm). The reverse-phase chromatography was performed using a gradient of 10 mM ammonium acetate at pH=7.4 and acetonitrile solvents. Using the identical solvent setup, gradient, and flowrate, ProLock stapled peptides were injected onto the column to determine the tR of peptides. Using the calibration curve shown in FIG. 7, tR is converted into CHI. CHI was converted into CHI Log D using the following equation.
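Throughout, for % Retention: Phospholipid-membrane PAMPA, donor and acceptor in DPBS pH 7.4 with 5% DMSO, 37 °C for 5 h, compound in each well quantified by reverse-phase HPLC-MS.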
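Throughout, for PAMPA Pe (text): Phospholipid-membrane PAMPA, donor and acceptor in DPBS pH 7.4 with 5% DMSO, 37 °C for 5 h, compound in each well quantified by reverse-phase HPLC-MS.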
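Throughout, for PAMPA Pe: Phospholipid-membrane PAMPA, donor and acceptor in DPBS pH 7.4 with 5% DMSO, 37 °C for 5 h, compound in each well quantified by reverse-phase HPLC-MS.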
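Throughout, for Papp: Phospholipid-membrane PAMPA, donor and acceptor in DPBS pH 7.4 with 5% DMSO, 37 °C for 5 h, compound in each well quantified by reverse-phase HPLC-MS.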

| % Retention [1] [%] | Papp at 5 h ([2]; pH 7.4, PAMPA Pe) [×10⁻⁶ cm/s] | chromatographic logD [3] | chromatographic logD ([3]; reverse-phase HPLC, Phenomenex Gemini C-18 column) | PAMPA Pe (text) [1] [×10⁻⁶ cm/s] | PAMPA Pe [1] | Papp at 5 h ([2]; pH 7.4, average effective permeability (Pe) of control on accepted PAMPA plates) [×10⁻⁶ cm/s] | Compound |
| --- | --- | --- | --- | --- | --- | --- | --- |
| 91 ± 2 | 0.5 ± 0.1 | 2.5 |  |  |  |  | C=CCCC[C@](C)(NC(=O)[C@H](CC(C)C)NC(=O)[C@H](CC(C)C)NC(=O)[C@]1(CC=C)CCCN1C(C)=O)C(=O)N[C@@H](CCCNC(=N)N)C(=O)N[C@@H](CC(C)C)C(=O)N[C@@H](CC(C)C)C(=O)N[C@@H](Cc1c[nH]cn1)C(=O)N[C@@H](CC(=O)O)C(=O)NC [PLL7-9 variant 5, Ac-PL3-Leu-Leu-S5-Arg-Leu-Leu-His-Asp-NHMe] (Ac-[αAllylPro]LL[S5]RLLHD-NHMe) |
| 48 ± 3 | ≤ 0.1 | 4 |  |  |  |  | CCCC[C@H](NC(=O)[C@H](CC(C)C)NC(=O)[C@]1(C)CCCC=CC[C@]2(CCCN2C(C)=O)C(=O)N[C@@H](C)C(=O)N[C@@H](CC(C)C)C(=O)N1)C(=O)N[C@@H](CC(C)C)C(=O)N[C@@H](C)C(=O)N[C@@H](Cc1ccc(O)cc1)C(=O)NC (single isomer, unassigned) [PLL4-6, Ac-PL3-Ala-Leu-S5-Leu-Nle-Leu-Ala-Tyr-NHMe] |
| 88 ± 4 | 0.3 ± 0.1 | 2.7 |  |  |  |  | C=CCCC[C@](C)(NC(=O)[C@H](CC(C)C)NC(=O)[C@H](C)NC(=O)[C@]1(CC=C)CCCN1C(C)=O)C(=O)N[C@@H](Cc1c[nH]cn1)C(=O)N[C@@H](CC(C)C)C(=O)N[C@@H](CC(C)C)C(=O)N[C@@H](CC(N)=O)C(=O)NC [PLL7-20 variant 5, Ac-PL3-Ala-Leu-S5-His-Leu-Leu-Asn-NHMe] (Ac-[αAllylPro]AL[S5]HLLN-NHMe) |
| 74 ± 6 | ≤ 0.1 | 2.6 |  |  |  |  | CNC(=O)[C@H](CC(N)=O)NC(=O)[C@H](CC(C)C)NC(=O)[C@H](CC(C)C)NC(=O)[C@H](Cc1c[nH]cn1)NC(=O)[C@]1(C)CCCC=CCCC[C@](C)(NC(C)=O)C(=O)N[C@@H](C)C(=O)N[C@@H](C)C(=O)N[C@@H](CC(C)C)C(=O)N1 [PLL7-20 variant 4, Ac-S5-Ala-Ala-Leu-S5-His-Leu-Leu-Asn-NHMe] (Ac-[S5]AAL[S5]HLLN-NHMe; staple 1-5) |
| 52 ± 8 | ≤ 0.1 | 1.5 |  |  |  |  | CNC(=O)[C@H](Cc1ccc(O)cc1)NC(=O)[C@@H](NC(=O)[C@H](CC(C)C)NC(=O)[C@H](CC(C)C)NC(=O)[C@H](CC(N)=O)NC(=O)[C@]1(C)CCCC=CC[C@]2(CCCN2)C(=O)N[C@@H](CCCCN)C(=O)N[C@@H](CC(C)C)C(=O)N1)[C@@H](C)O (single isomer, unassigned) [PLL4-5 variant 1, H-PL3-Lys-Leu-S5-Asn-Leu-Leu-Thr-Tyr-NHMe] |
| 36 ± 1 | ≤ 0.1 |  | 2.4 |  |  |  | CNC(=O)[C@H](Cc1ccc(O)cc1)NC(=O)[C@H](CC(=O)O)NC(=O)[C@H](CC(C)C)NC(=O)[C@H](CC(C)C)NC(=O)[C@H](Cc1ccc(O)cc1)NC(=O)[C@]1(C)CCCC=CC[C@]2(CCCN2C(C)=O)C(=O)N[C@@H](CC(C)C)C(=O)N[C@@H](CC(C)C)C(=O)N1 [PLL5-1, Ac-PL3-Leu-Leu-S5-Tyr-Leu-Leu-Asp-Tyr-NHMe] (Ac-[X1]LL[S5]YLLDY-NHMe; staple 1-4) |
| 90 ± 3 | 1.7 ± 0.4 | 1.8 |  | 1.7 |  |  | C=CCCC[C@](C)(NC(=O)[C@H](CC(C)C)NC(=O)[C@H](CC(C)C)NC(=O)[C@]1(CC=C)CCCN1C(C)=O)C(=O)N[C@@H](Cc1ccc(O)cc1)C(=O)N[C@@H](CC(C)C)C(=O)N[C@@H](CC(C)C)C(=O)N[C@@H](CC(=O)O)C(=O)N[C@@H](CC(=O)O)C(=O)NC [PLL5-2 variant 5, Ac-PL3-Leu-Leu-S5-Tyr-Leu-Leu-Asp-Asp-NHMe] (Ac-[αAllylPro]LL[S5]YLLDD-NHMe) |
| 79 ± 3 | ≤ 0.1 | 2.2 |  |  |  |  | CNC(=O)[C@H](Cc1ccc(O)cc1)NC(=O)[C@@H](NC(=O)[C@H](CC(C)C)NC(=O)[C@H](CC(C)C)NC(=O)[C@H](CC(N)=O)NC(=O)[C@]1(C)CCCC=CCCC[C@](C)(NC(C)=O)C(=O)N[C@@H](C)C(=O)N[C@@H](CCCCN)C(=O)N[C@@H](CC(C)C)C(=O)N1)[C@@H](C)O [PLL4-5 variant 4, Ac-S5-Ala-Lys-Leu-S5-Asn-Leu-Leu-Thr-Tyr-NHMe] (Ac-[S5]AKL[S5]NLLTY-NHMe; staple 1-5) |
| 75 ± 1 | 0.5 ± 0.1 | 1.8 |  |  |  |  | CC(=O)N1CCC[C@]12CC=CCCC[C@@](C)(C(=O)N[C@@H](Cc1ccc(O)cc1)C(=O)N[C@@H](CC(C)C)C(=O)N[C@@H](CC(C)C)C(=O)N[C@@H](CCC(N)=O)C(=O)N[C@@H](CC(=O)O)C(N)=O)NC(=O)[C@H](CC(C)C)NC(=O)[C@H](CC1CC1)NC2=O (single isomer, unassigned) [PLL7-7 variant 3, Ac-PL3-Cpa-Leu-S5-Tyr-Leu-Leu-Gln-Asp-NH2] |
| 82 ± 2 | 0.3 ± 0.1 | 2.4 |  |  |  |  | CNC(=O)[C@H](CC(=O)O)NC(=O)[C@H](Cc1c[nH]cn1)NC(=O)[C@H](CC(C)C)NC(=O)[C@H](CC(C)C)NC(=O)[C@H](CCCNC(=N)N)NC(=O)[C@]1(C)CCCC=CC[C@]2(CCCN2C(C)=O)C(=O)O[C@@H](CC(C)C)C(=O)N[C@@H](CC(C)C)C(=O)N1 (single isomer, unassigned) [PLL7-9 variant 2, Ac-PL3-Lec-Leu-S5-Arg-Leu-Leu-His-Asp-NHMe] |
| 101 ± 24 | ≤ 0.1 | 2.7 |  |  |  |  | CNC(=O)[C@H](CC(=O)O)NC(=O)[C@H](Cc1c[nH]cn1)NC(=O)[C@H](CC(C)C)NC(=O)[C@H](CC(C)C)NC(=O)[C@H](CCCNC(=N)N)NC(=O)[C@]1(C)CCCC=CCCC[C@](C)(NC(C)=O)C(=O)N[C@@H](C)C(=O)N[C@@H](CC(C)C)C(=O)N[C@@H](CC(C)C)C(=O)N1 [PLL7-9 variant 4, Ac-S5-Ala-Leu-Leu-S5-Arg-Leu-Leu-His-Asp-NHMe] (Ac-[S5]ALL[S5]RLLHD-NHMe; staple 1-5) |
| 92 ± 10 |  |  |  |  | ≤0.1 (×10^−6) cm/sec |  | Ac-PL3-Lec-Leu-S5-Tyr-Leu-Leu-Asp-NHMe [PLL4-10 variant 2] |
| 43 ± 3 | ≤ 0.1 | 3.3 |  |  |  |  | CCCC[C@@H]1NC(=O)[C@H](CC(C)C)NC(=O)[C@]2(CC=CCCC[C@@](C)(C(=O)N[C@@H](CC(C)C)C(=O)N[C@@H](CC(C)C)C(=O)N[C@@H](Cc3c[nH]cn3)C(=O)N[C@@H](Cc3ccc(O)cc3)C(=O)NC)NC1=O)CCCN2C(C)=O (single isomer, unassigned) [PLL4-9, Ac-PL3-Leu-Nle-S5-Leu-Leu-His-Tyr-NHMe] |
| 106 ± 2 | 0.3 ± 0.1 | 2.2 |  |  |  |  | CC(=O)N1CCC[C@]12CC=CCCC[C@@](C)(C(=O)N[C@@H](Cc1ccc(O)cc1)C(=O)N[C@@H](CC(C)C)C(=O)N[C@@H](CC(C)C)C(=O)N[C@@H](CC(=O)O)C(N)=O)NC(=O)[C@H](CC(C)C)NC(=O)[C@H](CC(C)C)NC2=O (single isomer, unassigned) [PLL4-10 variant 3, Ac-PL3-Leu-Leu-S5-Tyr-Leu-Leu-Asp-NH2] |
|  | 8.6 ± 0.3 |  |  |  | 8.6 ± 0.3 (x10^−6) cm/sec | 7 to 11 | CC(=O)CC(c1ccccc1)c1c(O)c2ccccc2oc1=O (stereo not drawn) [Warfarin, reference compound] |
